Assay [1] addresses T1, Steroid 5-alpha-reductase (Rattus norvegicus, UniProt P24008+P31214).
T1 sequence (P24008 whole entry): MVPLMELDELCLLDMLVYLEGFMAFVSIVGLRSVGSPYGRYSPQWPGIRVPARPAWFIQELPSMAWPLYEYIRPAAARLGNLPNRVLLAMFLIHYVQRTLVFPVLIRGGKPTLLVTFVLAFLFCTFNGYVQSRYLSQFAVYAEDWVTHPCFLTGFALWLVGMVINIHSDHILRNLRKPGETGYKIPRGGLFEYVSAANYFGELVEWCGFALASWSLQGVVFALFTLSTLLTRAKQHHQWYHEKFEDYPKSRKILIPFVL
T1 sequence (P31214 whole entry): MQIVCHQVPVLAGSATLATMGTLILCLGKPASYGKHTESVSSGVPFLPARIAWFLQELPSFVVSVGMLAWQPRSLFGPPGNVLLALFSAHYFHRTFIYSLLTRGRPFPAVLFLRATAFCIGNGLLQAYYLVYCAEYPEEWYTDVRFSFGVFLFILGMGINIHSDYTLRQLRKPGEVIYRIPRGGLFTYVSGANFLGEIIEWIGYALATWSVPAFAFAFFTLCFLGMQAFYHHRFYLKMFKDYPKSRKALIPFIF
Kind of assay: Compound was tested for the inhibitory activity against Steroid 5-alpha-reductase in rat.

Assay [2] has as its target T2, 3-oxo-5-alpha-steroid 4-dehydrogenase 1 (Rattus norvegicus, UniProt P24008).
T2 sequence (P24008 whole entry): T1 sequence (P24008 whole entry)
In words: Compound was tested for the inhibitory activity against Steroid 5-alpha-reductase type 1 in rat.

The structures appear in SMILES notation. pIC50: −log10 of the molar value.

This note sets out measurements from ChEMBL document CHEMBL1130754, “Structure activity relationship study of known inhibitors of the enzyme 5 alpha-reductase (5AR)” (Bioorg Med Chem Lett, 1998).

Usually IC50 stands for the concentration that inhibits the measured activity by half. Low readings indicate greater potency, high ones weaker potency. The compound `CCCCCCCCNC(=O)[C@H]1CCC2C3CCC4NC(=O)CC[C@]4(C)C3CC[C@@]21C` (some centres undefined) returned an IC50 in assay [1] of 0.13 nM. In other words, the sub-nanomolar range. In assay [1], `C[C@]12CCC(=O)C=C1CC[C@@H]1[C@@H]2CC[C@]2(C)C(c3cccnc3)=CC[C@@H]12` displayed an IC50 of 10000 nM. Same read-out and setting: then `CC(C)(C)NC(=O)[C@H]1CCC2C3CCC4NC(=O)CC[C@]4(C)C3CC[C@@]21C` (some centres undefined), with 6.3 nM. In general, pIC50 refers to the IC50 on a negative log10 scale, so that one unit is a factor of ten. A low value points to a large IC50. `CC(C)(C)NC(=O)[C@H]1CC[C@H]2[C@@H]3CC[C@H]4NC(=O)C=C[C@]4(C)[C@H]3CC[C@]12C` [FINASTERIDE] gave a pIC50 in assay [2] of 8.38.
